Data reported in article PMC3726336, “Product inhibition of cellulases studied with ^14C-labeled cellulose substrates” (Biotechnology for Biofuels, 2013).

Legend:
TrCel6A = biological target: T1, TrCel6A (Trichoderma reesei, UniProt P07987); assay: Inhibition of hydrolysis of 14C-BMCC by TrCel6A; format: biochemical
T1 construct: TrCel6A was purified from the culture filtrate of Tr QM 9414 as described previously; made in house; host or cells: Trichoderma reesei QM 9414 culture filtrate (native producer)
Source text: Here, we characterized the cellobiose and glucose inhibition of TrCel6A and its thermophilic counterpart, CtCel6A [9, 63]. First, the cellobiose inhibition of the synergistic hydrolysis of ^14C-BC by TrCel6A and TrCel5A was studied (Figure 7A). As TrCel6A was less sensitive to cellobiose inhibition than TrCel7A, the contribution of the cellobiose released during hydrolysis was not significant, and an average (DCB/DCB=0) over all time points was used in plotting (DCB/DCB=0) versus [cellobiose] (Figure 7D). No significant systematic variation of DCB/DCB=0 depending on hydrolysis time was observed. As in the case of GH7 CBHs, the IC50 value was found using Equations 5 and 6. Because the IC50 value for synergistic hydrolysis (Table 3) was of the same order as the apparent Ki value reported for TrCel5A [31], we further tested the inhibition of individual TrCel6A. BC is not a good substrate for TrCel6A, but its acid-treated derivative, BMCC, is readily degraded by the enzyme. Therefore, we prepared ^14C-BMCC by the heterogeneous acid hydrolysis of ^14C-BC. […]
GH6 CBHs were assessed by observing the hydrolysis of ^14C-BMCC. ^14C-BMCC (0.25 g l^-1) was incubated (with shaking at 350 rpm) with CBH (0.25 μM) and N188BG (0.06 μM) in 50 mM sodium acetate buffer, pH 5.0, containing BSA (0.1 g l^-1). […]

TrCel12A = assay: Cellobiose effect on hydrolysis of 14C-amorphous cellulose by TrCel12A; format: biochemical, Trichoderma reesei; conditions: 35°C
Source text: EGs are a diverse group of enzymes present in all efficient cellulase systems. Their best recognized function is their synergism with CBHs. Depending on the conditions, the degree of synergistic effect may be more than 10-fold. Therefore, the inhibition of the EG component may result in a drastic decrease in the rate of the synergistic hydrolysis of cellulose. The main soluble product of the EG-catalyzed cellulose hydrolysis is cellobiose, but some glucose and higher-order oligosaccharides are also produced. Here, we studied the cellobiose inhibition of the EGs TrCel7B, TrCel5A and TrCel12A with ^14C-amorphous cellulose substrate. The enzyme concentrations and hydrolysis times were adjusted so that the linear region of the time course was studied. The time courses for the hydrolysis of ^14C-amorphous cellulose by TrCel7B in the presence and absence of added cellobiose are shown in Figure 9A. For the results with TrCel5A and TrCel12A, see Additional file 1: Figure S5. […] This figure is reasonably well in line with that measured for TrCel7B on amorphous cellulose using isothermal titration calorimetry. […]
EGs were assessed on ^14C-amorphous cellulose. ^14C-amorphous cellulose (0.5 g l^-1) was incubated (with shaking at 700 rpm) with EG in 50 mM sodium acetate buffer, pH 5.0, containing BSA (0.1 g l^-1) in the presence and absence of added cellobiose. […]

[1] = biological target: Cel7A from Trichoderma harzianum; parameters: method as in PMID 23114223; conditions: hydrolysis of chloro-nitrophenyl lactoside; read-out: Ki value for cellobiose inhibition; cited from earlier work
TrCel7B = biological target: T2, TrCel7B (Trichoderma reesei, UniProt P07981); parameters: method as in PMID 15129433; conditions: 3H-reduced amorphous cellulose substrate, read-out: apparent Ki value; cited from earlier work
T2 construct: TrCel7B, TrCel5A, and TrCel12A were purified from the culture filtrate of Tr QM 9414; made in house; host or cells: Trichoderma reesei QM 9414 culture filtrate (native producer)

TrCel5A = biological target: T3, TrCel5A (Trichoderma reesei, UniProt P07982); parameters: method as in doi:10.1016/j.tca.2005.01.025; conditions: TrCel5A acting on cellohexaose; read-out: Ki value for cellobiose inhibition; cited from earlier work
T3 construct: TrCel7B, TrCel5A, and TrCel12A were purified from the culture filtrate of Tr QM 9414; made in house; host or cells: Trichoderma reesei QM 9414 culture filtrate (native producer)
T3 sequence (P07982 22-418): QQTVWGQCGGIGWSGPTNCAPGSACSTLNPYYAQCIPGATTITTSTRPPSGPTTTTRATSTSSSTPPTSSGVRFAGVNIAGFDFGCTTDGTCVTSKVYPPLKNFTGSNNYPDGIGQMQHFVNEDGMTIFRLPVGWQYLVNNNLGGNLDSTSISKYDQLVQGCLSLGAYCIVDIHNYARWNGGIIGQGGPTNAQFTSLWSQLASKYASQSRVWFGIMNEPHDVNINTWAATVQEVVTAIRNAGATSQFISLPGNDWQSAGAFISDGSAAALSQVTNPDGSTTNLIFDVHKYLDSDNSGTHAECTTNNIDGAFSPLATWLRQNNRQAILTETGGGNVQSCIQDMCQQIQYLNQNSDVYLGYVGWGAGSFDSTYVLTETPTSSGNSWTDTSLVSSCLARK

T2 sequence (P07981 23-459): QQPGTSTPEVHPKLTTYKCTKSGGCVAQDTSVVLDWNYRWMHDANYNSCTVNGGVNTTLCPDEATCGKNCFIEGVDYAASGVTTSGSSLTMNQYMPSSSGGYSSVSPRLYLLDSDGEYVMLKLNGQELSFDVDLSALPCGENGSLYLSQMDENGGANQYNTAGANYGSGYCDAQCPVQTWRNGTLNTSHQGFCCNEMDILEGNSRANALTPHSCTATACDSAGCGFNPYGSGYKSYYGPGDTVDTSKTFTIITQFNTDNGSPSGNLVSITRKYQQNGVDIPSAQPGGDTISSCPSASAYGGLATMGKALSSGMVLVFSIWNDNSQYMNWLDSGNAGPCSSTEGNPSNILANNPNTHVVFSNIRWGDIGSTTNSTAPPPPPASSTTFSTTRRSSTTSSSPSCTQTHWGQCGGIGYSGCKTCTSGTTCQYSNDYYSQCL
T1 sequence (P07987 25-471): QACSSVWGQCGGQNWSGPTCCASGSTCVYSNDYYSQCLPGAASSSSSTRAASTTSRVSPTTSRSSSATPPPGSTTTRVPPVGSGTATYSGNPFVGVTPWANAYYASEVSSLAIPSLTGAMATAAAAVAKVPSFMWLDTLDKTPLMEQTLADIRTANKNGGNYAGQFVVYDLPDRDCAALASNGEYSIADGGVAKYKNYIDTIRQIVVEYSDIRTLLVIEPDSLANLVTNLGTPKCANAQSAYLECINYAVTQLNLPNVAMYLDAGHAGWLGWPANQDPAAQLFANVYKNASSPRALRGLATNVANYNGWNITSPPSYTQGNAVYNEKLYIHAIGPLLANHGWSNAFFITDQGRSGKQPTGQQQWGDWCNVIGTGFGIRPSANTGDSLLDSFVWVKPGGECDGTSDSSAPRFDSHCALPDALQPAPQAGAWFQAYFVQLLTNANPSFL

## O=C[C@H](O)[C@@H](O)[C@H](O[C@@H]1O[C@H](CO)[C@@H](O)[C@H](O)[C@H]1O)[C@H](O)CO [cellobiose, Cellobiose]
TrCel6A
  IC50: 20 ± 1.4 mM
TrCel12A; TrCel12A (50 nM), not accountable by Equation 5
  IC50 (approximate, by visual inspection of Figure 9B): few hundred millimolar range
TrCel12A; TrCel12A, 75 mM cellobiose
  Effect of cellobiose on activity: apparent activation
[1]
  Ki: 7.2 mM
TrCel7B
  Ki: 11 ± 3 mM
TrCel5A
  Ki: 0.424 mM
